Laboratory results published in ChEMBL document CHEMBL4507256 (2021).

What was measured:
[1] = biological target: Endothelin receptor type B (Homo sapiens) (UniProt P24530); experiment: ETB (h) CEREP ligand profiling; settings: Compound concentration 10.0 uM
[2] = biological target: Histamine H1 receptor (Homo sapiens) (UniProt P35367); experiment: H1 (h) CEREP ligand profiling; settings: Compound concentration 10.0 uM
[3] = biological target: Gastrin/cholecystokinin type B receptor (Homo sapiens) (UniProt P32239); experiment: CCKB (h) CEREP ligand profiling; settings: Compound concentration 10.0 uM
[4] = biological target: GABA-A receptor; anion channel (Homo sapiens) (UniProt P14867+P47870+P18507+P28472+P48169+Q99928+Q9UN88+P34903+O00591+O14764+Q8N1C3+P18505+P78334+P47869+P31644+Q16445); experiment: BZD (central) CEREP ligand profiling; assay type: protein-complex assay; settings: Compound concentration 10.0 uM
[5] = biological target: Platelet-derived growth factor receptor (Homo sapiens) (UniProt P09619+P16234); experiment: PDGF CEREP ligand profiling; assay type: protein-complex assay; settings: Compound concentration 10.0 uM
[6] = biological target: T1, Muscarinic acetylcholine receptor M5 (Homo sapiens) (UniProt P08912); experiment: M5 (h) CEREP ligand profiling; settings: Compound concentration 10.0 uM
T1 sequence (whole entry): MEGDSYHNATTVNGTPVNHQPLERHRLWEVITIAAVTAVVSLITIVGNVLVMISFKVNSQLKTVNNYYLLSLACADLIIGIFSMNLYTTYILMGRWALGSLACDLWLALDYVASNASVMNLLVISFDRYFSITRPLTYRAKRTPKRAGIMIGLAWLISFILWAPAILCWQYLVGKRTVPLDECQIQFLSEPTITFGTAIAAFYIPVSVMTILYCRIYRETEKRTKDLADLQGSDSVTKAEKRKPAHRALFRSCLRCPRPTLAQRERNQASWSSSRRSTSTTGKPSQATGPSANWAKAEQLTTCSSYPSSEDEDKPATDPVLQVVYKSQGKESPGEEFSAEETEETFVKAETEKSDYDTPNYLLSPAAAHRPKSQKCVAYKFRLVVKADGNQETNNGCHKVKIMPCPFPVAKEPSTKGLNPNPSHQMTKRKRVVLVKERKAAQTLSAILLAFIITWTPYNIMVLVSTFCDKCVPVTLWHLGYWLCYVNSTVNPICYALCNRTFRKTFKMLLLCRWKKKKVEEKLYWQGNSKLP

[7] = biological target: T2, Muscarinic acetylcholine receptor M4 (Homo sapiens) (UniProt P08173); experiment: M4 (h) CEREP ligand profiling; settings: Compound concentration 10.0 uM
T2 sequence (whole entry): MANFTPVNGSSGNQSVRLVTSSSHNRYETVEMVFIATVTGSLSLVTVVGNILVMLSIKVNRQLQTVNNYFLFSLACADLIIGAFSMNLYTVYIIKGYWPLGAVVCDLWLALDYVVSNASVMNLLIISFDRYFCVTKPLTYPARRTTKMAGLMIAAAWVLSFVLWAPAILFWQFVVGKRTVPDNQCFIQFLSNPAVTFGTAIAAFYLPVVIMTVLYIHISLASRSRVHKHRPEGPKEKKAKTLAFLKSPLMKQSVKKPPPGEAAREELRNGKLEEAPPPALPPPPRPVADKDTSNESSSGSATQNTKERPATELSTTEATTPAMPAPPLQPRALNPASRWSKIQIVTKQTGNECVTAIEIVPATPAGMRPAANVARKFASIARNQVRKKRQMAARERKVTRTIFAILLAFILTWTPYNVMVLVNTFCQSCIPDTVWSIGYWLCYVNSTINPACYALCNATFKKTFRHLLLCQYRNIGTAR

[8] = biological target: T3, D(4) dopamine receptor (Homo sapiens) (UniProt P21917); experiment: D4.4 (h) CEREP ligand profiling; settings: Compound concentration 10.0 uM
T3 sequence (whole entry): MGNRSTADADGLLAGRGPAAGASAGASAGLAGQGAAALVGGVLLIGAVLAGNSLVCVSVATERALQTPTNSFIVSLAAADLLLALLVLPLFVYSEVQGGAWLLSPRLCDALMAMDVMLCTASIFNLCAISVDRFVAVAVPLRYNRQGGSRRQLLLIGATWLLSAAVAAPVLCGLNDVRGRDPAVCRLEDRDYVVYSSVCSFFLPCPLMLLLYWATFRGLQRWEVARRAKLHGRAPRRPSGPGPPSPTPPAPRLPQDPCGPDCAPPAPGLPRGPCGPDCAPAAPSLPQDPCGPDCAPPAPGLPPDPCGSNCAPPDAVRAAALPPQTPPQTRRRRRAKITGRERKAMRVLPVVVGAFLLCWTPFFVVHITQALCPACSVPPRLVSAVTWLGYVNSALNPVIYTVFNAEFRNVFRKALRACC

[9] = biological target: Substance-K receptor (Homo sapiens) (UniProt P21452); experiment: NK2 (h) CEREP ligand profiling; settings: Compound concentration 10.0 uM
[10] = biological target: Calcium-activated potassium channel (Homo sapiens) (UniProt Q92952+Q9UGI6+Q12791+O15554+Q9H2S1+A8MYU2); experiment: SK+ channel CEREP ligand profiling; assay type: protein assay; settings: Compound concentration 10.0 uM
[11] = biological target: Delta-type opioid receptor (Homo sapiens) (UniProt P41143); experiment: delta 2 (h) CEREP ligand profiling; settings: Compound concentration 10.0 uM
[12] = biological target: Bombesin receptor (Homo sapiens) (UniProt P28336+P32247+P30550); experiment: BB (non-select) CEREP ligand profiling; assay type: protein assay; settings: Compound concentration 10.0 uM
[13] = biological target: Beta-2 adrenergic receptor (Homo sapiens) (UniProt P07550); experiment: beta 2 CEREP ligand profiling; settings: Compound concentration 10.0 uM
[14] = biological target: Adenosine receptor A3 (Homo sapiens) (UniProt P0DMS8); experiment: A3 CEREP ligand profiling; settings: Compound concentration 10.0 uM
[15] = biological target: Ca2+ channel (voltage-gated L-type calcium channel family) (Homo sapiens, UniProt O60840+Q01668+Q13698+Q13936); experiment: Ca2+ channel CEREP ligand profiling; assay type: protein assay; settings: probe penylalkylamine (ligand); compound concentration 10 uM
[16] = biological target: Muscarinic acetylcholine receptor M3 (Homo sapiens) (UniProt P20309); experiment: M3 (h) CEREP ligand profiling; settings: Compound concentration 10.0 uM
[17] = system: Tyrosine-protein kinase ABL1 (Homo sapiens), P00519 [M351T]; settings: Compound concentration 1000.0 nM
[18] = biological target: Calcium/calmodulin-dependent protein kinase kinase 2 (Homo sapiens) (UniProt Q96RR4); settings: Compound concentration 1000.0 nM
[19] = GPCRScan assay: inhibition of GABA/PBR; set-up: species or system Rattus norvegicus; radioligand conc. used [nm] 0.3 – 2.0, parental cells brain tissue

Chain of Gastrin/cholecystokinin type B receptor (Homo sapiens) (P32239 whole entry): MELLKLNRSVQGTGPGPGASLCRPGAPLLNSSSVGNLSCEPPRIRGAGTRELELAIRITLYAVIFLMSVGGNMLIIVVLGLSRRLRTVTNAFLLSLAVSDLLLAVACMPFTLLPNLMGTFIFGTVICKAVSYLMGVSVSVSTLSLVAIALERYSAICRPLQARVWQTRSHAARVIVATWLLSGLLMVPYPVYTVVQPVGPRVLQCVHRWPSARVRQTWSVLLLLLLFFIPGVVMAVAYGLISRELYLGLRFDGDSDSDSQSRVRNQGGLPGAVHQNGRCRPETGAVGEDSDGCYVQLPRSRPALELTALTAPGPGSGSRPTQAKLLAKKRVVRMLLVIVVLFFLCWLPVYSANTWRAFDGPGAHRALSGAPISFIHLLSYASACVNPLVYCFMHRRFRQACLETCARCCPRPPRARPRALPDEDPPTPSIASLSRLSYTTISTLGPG
Chain of Beta-2 adrenergic receptor (Homo sapiens) (P07550 whole entry, looked up): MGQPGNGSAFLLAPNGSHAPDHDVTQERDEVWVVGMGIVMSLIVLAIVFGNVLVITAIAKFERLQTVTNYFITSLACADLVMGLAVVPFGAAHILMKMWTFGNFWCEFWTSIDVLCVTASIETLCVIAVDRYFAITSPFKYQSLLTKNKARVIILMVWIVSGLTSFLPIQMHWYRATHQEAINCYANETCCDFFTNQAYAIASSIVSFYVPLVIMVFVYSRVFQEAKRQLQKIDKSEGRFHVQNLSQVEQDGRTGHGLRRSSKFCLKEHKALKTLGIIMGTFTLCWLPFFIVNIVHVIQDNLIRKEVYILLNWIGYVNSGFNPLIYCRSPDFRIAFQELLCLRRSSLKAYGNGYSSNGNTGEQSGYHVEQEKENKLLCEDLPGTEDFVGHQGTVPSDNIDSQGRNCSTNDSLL
Chain of Substance-K receptor (Homo sapiens) (P21452 whole entry): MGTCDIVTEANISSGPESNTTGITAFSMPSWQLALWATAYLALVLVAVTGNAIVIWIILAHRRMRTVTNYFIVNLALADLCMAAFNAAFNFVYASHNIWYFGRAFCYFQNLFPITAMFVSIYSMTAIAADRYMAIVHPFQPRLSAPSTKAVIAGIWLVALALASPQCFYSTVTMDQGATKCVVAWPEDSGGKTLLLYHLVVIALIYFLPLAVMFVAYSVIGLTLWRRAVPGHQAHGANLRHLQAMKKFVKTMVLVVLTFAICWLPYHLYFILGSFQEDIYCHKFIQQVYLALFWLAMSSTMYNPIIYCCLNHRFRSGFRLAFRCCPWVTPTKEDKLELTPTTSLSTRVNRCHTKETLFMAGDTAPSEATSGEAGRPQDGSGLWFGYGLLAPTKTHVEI
Chain of Adenosine receptor A3 (Homo sapiens) (P0DMS8 whole entry): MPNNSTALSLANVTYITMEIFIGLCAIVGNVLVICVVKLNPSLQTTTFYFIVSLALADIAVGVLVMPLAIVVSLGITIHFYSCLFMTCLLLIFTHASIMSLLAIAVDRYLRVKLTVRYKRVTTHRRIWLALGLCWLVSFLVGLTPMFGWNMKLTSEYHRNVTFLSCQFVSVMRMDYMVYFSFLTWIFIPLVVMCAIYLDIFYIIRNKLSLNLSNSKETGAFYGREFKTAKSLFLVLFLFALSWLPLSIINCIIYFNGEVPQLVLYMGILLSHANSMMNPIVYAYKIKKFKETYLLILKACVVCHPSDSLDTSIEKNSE
Chain of Endothelin receptor type B (Homo sapiens) (P24530 whole entry): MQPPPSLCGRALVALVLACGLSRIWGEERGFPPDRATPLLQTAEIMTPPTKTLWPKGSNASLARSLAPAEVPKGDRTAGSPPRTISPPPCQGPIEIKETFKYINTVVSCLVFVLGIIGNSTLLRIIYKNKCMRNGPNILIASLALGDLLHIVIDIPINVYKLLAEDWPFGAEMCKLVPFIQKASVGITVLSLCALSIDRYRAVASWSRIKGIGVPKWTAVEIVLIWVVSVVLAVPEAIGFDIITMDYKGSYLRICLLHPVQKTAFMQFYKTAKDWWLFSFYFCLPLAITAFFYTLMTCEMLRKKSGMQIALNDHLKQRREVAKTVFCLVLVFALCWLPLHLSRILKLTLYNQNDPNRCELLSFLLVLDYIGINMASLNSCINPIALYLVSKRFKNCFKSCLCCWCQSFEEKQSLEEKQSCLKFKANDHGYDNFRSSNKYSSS
Chain of Delta-type opioid receptor (Homo sapiens) (P41143 whole entry): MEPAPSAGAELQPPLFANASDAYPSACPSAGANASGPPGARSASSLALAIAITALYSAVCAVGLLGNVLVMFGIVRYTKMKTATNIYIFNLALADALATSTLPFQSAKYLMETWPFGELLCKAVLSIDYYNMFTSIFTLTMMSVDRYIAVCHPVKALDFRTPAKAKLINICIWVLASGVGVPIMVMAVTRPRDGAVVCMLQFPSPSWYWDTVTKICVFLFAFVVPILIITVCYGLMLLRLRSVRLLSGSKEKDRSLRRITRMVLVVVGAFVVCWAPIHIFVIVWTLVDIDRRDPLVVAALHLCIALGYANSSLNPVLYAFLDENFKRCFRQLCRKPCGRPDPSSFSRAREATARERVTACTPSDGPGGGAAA
Chain of Bombesin receptor (Homo sapiens) (P28336 whole entry, looked up): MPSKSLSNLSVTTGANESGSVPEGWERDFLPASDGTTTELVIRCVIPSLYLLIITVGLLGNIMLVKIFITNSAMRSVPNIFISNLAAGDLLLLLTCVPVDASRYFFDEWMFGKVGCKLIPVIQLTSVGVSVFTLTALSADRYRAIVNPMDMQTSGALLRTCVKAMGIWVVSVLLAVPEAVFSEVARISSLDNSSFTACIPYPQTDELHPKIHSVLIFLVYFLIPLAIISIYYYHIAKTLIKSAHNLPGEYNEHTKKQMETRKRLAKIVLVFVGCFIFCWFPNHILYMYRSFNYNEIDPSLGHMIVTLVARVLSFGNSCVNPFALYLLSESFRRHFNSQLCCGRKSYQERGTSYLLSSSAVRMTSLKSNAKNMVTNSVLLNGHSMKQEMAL
Chain of Bombesin receptor (Homo sapiens) (P30550 whole entry, looked up): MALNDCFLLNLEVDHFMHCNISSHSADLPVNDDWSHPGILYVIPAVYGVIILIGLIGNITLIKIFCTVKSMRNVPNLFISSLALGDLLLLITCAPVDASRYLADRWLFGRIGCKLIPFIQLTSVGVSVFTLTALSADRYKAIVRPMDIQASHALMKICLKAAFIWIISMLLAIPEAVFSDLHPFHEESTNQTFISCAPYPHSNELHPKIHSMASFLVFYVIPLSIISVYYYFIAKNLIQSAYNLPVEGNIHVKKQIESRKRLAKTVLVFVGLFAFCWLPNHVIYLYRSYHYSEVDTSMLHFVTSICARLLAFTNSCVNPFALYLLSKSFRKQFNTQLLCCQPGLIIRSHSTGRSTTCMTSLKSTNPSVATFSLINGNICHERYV
Chain of Bombesin receptor (Homo sapiens) (P32247 whole entry, looked up): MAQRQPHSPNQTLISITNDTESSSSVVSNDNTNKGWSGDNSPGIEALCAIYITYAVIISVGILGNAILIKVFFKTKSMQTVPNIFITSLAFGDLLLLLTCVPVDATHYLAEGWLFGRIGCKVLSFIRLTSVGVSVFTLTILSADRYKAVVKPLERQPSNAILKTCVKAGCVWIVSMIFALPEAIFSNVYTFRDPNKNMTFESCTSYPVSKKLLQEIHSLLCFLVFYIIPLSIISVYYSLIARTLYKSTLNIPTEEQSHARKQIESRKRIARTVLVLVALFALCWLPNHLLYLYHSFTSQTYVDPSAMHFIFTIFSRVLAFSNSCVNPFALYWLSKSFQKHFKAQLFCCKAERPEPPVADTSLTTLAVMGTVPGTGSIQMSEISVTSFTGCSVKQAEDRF
Chain of Muscarinic acetylcholine receptor M3 (Homo sapiens) (P20309 whole entry, looked up): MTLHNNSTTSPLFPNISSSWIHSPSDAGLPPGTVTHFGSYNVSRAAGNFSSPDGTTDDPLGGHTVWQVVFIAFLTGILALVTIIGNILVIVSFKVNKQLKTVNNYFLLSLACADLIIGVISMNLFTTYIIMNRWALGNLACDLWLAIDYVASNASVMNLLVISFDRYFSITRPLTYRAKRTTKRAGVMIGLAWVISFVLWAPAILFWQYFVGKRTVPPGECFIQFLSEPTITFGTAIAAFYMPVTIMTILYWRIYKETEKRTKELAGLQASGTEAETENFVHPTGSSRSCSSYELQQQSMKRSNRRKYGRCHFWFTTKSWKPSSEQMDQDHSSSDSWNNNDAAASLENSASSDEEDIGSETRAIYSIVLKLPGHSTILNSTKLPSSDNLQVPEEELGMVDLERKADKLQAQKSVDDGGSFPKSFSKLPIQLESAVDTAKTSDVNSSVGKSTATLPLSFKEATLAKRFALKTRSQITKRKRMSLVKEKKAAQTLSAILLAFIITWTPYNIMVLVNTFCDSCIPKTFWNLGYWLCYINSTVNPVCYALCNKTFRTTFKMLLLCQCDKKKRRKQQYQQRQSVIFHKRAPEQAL
Chain of Calcium/calmodulin-dependent protein kinase kinase 2 (Homo sapiens) (Q96RR4 2-588 limits assumed): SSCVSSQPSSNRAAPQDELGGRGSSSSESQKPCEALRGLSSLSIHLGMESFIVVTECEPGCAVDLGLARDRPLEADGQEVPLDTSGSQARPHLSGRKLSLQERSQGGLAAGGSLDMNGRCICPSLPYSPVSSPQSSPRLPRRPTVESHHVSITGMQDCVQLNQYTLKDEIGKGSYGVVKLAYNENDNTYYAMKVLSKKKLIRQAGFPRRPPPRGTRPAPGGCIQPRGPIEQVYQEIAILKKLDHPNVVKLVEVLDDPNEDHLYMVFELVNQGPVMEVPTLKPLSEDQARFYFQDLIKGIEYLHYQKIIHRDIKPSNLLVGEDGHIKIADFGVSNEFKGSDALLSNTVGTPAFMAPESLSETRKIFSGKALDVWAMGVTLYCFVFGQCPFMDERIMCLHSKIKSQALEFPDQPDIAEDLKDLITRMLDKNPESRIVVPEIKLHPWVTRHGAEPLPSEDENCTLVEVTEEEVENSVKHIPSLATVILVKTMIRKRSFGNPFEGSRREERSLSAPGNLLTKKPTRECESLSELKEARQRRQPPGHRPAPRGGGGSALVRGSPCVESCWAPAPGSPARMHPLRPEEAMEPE

CCC(=N\O)/C(C)=C/c1ccc(F)cc1 [A-079]
inactive: inhibition [1] 5% | inhibition [2] 4% | inhibition [3] 7% | inhibition [4] 1% | inhibition [5] -6% | inhibition [6] -4% | inhibition [7] 5% | inhibition [8] 4% | inhibition [9] 2% | inhibition [10] -5% | inhibition [11] 11% | inhibition [12] -3% | inhibition [13] -3% | inhibition [14] 27% | inhibition [16] 6%
3% (not active): inhibition at 10 µM [15]

CCC(=N\O)/C(C)=C/c1ccc(F)c(C)c1 [A-226]
5.44: pKi [19]
3.69 µM: Ki [19]
inactive: residual activity [17] 100% | residual activity [18] 88%
